Legend:
[1] = system: Hyperlipemia Model of SD Rat; experiment: Screening in the hyperlipemia model of SD rat (fat emulsion by gavage; serum lipids); assay type: in vivo; settings: hyperlipemia SD rats, dosed 21 days, X ± SD
Description: Materials and Methods for Screening with the Compounds Prepared in Experiment 1 to 21 in the Hyperlipemia Model of SD Rat
SD rats, male, 150-180 g, supplied by Shanghai Slaccas Laboratory Animal Company Limited.
Preparation of fat emulsion: 500 g lard oil was weighed and placed into a vessel, heated for melting, and upon heating up to the temperature of 100° C., 200 g cholesterol was added and fully dissolved, then 20 g propylthiouracil was added. After full stirring and dissolving, 500 ml Tween 80 was added to give an oil phase. Meanwhile, 600 ml distilled water and 400 ml 1,2-propylene glycol were heated to 60° C. in water bath, and then 40 g sodium deoxycholate was added with stirring, until full dissolution, to give an aqueous phase. The aqueous phase was added into the oil phase and fully and uniformly mixed, to prepare the fat emulsion.
Formulation of the solution for the compounds: an appropriate amount of compounds was triturated with appropriate amount of Tween 80 for homogeneous dispersion, and then sufficient CMC-Na solution was added and fully triturated, suspended to give the solution for the compounds.
The animals were fed for acclimation for 3 days, with 8 animals as blank control (Control) according to weight, and the rest was subject to intragastric administration of fat emulsion at 1 ml/100 g weight at A.M. 9:00-11:00 daily for continuous 2 weeks; the animals were fasted for 12 hours, and had 1 ml blood sampled at orbital cavity, which was measured with the Hitachi Automatic Biochemical Analyzer 7080 for serum cholesterol (CHO), triglyceride (TO), low-density lipoprotein (LDL-C) and high-density lipoprotein (HDL-C), with the animals having CHO of 4-7 mmol/L for experiment.
The animals dosed with fat emulsion for 2 weeks were divided into model group (Model), simvastatin group (Sim, 10 mg/kg) and compound group (40 mg/kg) according to weight, and continued to receive intragastric administration with fat emulsion; at the same time, the dosed group was administered with respective amount of drug, and the model group was administered with equal volume of solvent. Fat emulsion was dosed by gavage at A.M., and drug was dosed at P.M. The animals were weighed at Monday, and were observed. The animals were dosed for continuous 21 days, and fasted for 12 hours, with 1 ml blood sampling at orbital cavity. The liver was exposed and observed for pathologic condition; after slicing and weighing, it was fixed into the 4% formaldehyde solution for pathologic examination.
The Hitachi Automatic Biochemical Analyzer 7080 was used to measure serum cholesterol (CHO), triglyceride (TG), low-density lipoprotein (LDL-C) and high-density lipoprotein (HDL-C).
Laboratory data were expressed as X±SD (Standard Deviation), and comparison between groups was carried out by t-testing.

[2] = system: Cholelithiasis Model of Golden Hamster; experiment: Screening in the cholelithiasis model of golden hamster (biochemical measurement of bile); assay type: in vivo, golden hamsters; settings: dosed 45 days, X ± SD
Description: Screening with the Compounds Prepared in Experiment 1 to 21 in the Cholelithiasis Model of Golden Hamster
68 male golden hamsters, 50-60 g, supplied by Shanghai Slaccas Laboratory Animal Company Limited.
The animals were fed for acclimation for 3 days, with 8 animals as blank control (Control) according to weight. The control was dosed with normal rat feedstuff, and the rest was dosed with feedstuff leading to cholelithiasis (sucrose 32.1%, cheese 64.2%, cholesterol 0.2%, salt 3%, vitamin B1 […], concentrated fish liver oil 0.4%). The animals were fed for acclimation for another 7 days, and divided into model group (Model), simvastatin group (Sim, 10 mg/kg), Ursodesoxycholic acid group (UDCA, 40 mg/kg), and compound group, n=6/group.
[…] 2:00-3:00 daily. The animals were weighed at Monday, and observed for hair color, stool, and variation of activation level.
The animals were dosed for continuous 45 days and then fasted for 12 hours; were anesthetized with 30 mg/kg sodium secobarbital via intraperitoneal injection; had 1 ml blood sampled via abdominal aorta; had gallbladder exposed, with an orifice on the gallbladder being clamped by the ophthalmological pliers and bile in the gallbladder being sucked with 1 ml syringe.
The Hitachi Automatic Biochemical Analyzer 7080 was used to measure cholesterol (CHO), total total bilirubin (TBIL), total bile acid (TBA) and total protein (TP) in bile.
Laboratory data was expressed as X±SD, and comparison of measurement data between groups was carried out by t-testing, with non-parametric testing for enumeration data.

Mice = experiment: Testing for acute toxicity in mice; assay type: in vivo; settings: orally by gavage, 5 g/kg, observation 14 days
Description: Testing for Acute Toxicity in Mice
The compounds was dissolved into an appropriate amount of Tween-80, and suspended and dispersed uniformly into a given amount of CMC-Na solution, which was administered orally and by gavage at a dose of 5 g/kg, with no toxicity associated with administration being observed, and no death of animals occurred during observation of continuous 14 days. From the results, the sample Compound 01, Compound 02, Compound 03, Compound 04, Compound 05, Compound 06, Compound 07, Compound 08, Compound 09, Compound 10, Compound 11, Compound 12, Compound 13, Compound 14, Compound 15, Compound 16, Compound 17, Compound 18, Compound 19, Compound 20 and Compound 21 were safe.

| Compound | CHO1 Concentration (serum cholesterol) ([1]; 10 mg/kg) [mmol/L] | HDL-C Concentration (serum high-density lipoprotein) ([1]; 10 mg/kg) [mmol/L] | LDL-C Concentration (serum low-density lipoprotein) ([1]; 10 mg/kg) [mmol/L] | TG Concentration (serum triglyceride) ([1]; 10 mg/kg) [mmol/L] | Cholesterol (CHO) in bile ([2]; 10 mg/kg) [mmol/L] | Total bile acid (TBA) in bile ([2]; 10 mg/kg) [mmol/L] | Total protein (TP) in bile ([2]; 10 mg/kg) [g/L] | Total total bilirubin (TBIL) in bile ([2]; 10 mg/kg) [µmol/L] | CHO1 Concentration (serum cholesterol) ([1]; 40 mg/kg) [mmol/L] | HDL-C Concentration (serum high-density lipoprotein) ([1]; 40 mg/kg) [mmol/L] | LDL-C Concentration (serum low-density lipoprotein) ([1]; 40 mg/kg) [mmol/L] | TG Concentration (serum triglyceride) ([1]; 40 mg/kg) [mmol/L] | Acute toxicity, overall result (Mice) | Cholesterol (CHO) in bile ([2]; 40 mg/kg) [mmol/L] | Total bile acid (TBA) in bile ([2]; 40 mg/kg) [mmol/L] | Total protein (TP) in bile ([2]; 40 mg/kg) [g/L] | Total total bilirubin (TBIL) in bile ([2]; 40 mg/kg) [µmol/L] |
| --- | --- | --- | --- | --- | --- | --- | --- | --- | --- | --- | --- | --- | --- | --- | --- | --- | --- |
| CCC(C)(C)C(=O)O[C@H]1C[C@@H](C)C=C2C=C[C@H](C)[C@H](CC[C@@H]3C[C@@H](O)CC(=O)O3)[C@H]21 [Simvastatin, reference compound] | 12.52 ± 1.34 | 1.52 ± 0.32 | 11.92 ± 1.44 | 1.41 ± 0.16 | 1.07 ± 0.63 | 7.68 ± 3.31 | 35.52 ± 18.04 | 79.2 ± 34.2 |  |  |  |  |  |  |  |  |  |
| Cc1ccc(C)c(OCCCC(C)(C)C(=O)NCC(=O)c2ccc(CO)cc2)c1 [Compound 21] |  |  |  |  |  |  |  |  | 14.42 ± 2.75 | 1.69 ± 0.26 | 12.15 ± 3.12 | 2.00 ± 0.52 | safe |  |  |  |  |
| CCC(CCCOc1cc(C)ccc1C)C(=O)N(C)CC(=O)c1cc(C)cc(O)c1 (stereo not drawn) [Compound 16] |  |  |  |  |  |  |  |  | 9.48 ± 1.27 | 1.32 ± 0.39 | 7.13 ± 1.52 | 0.78 ± 0.25 |  | 0.97 ± 0.62 | 19.74 ± 12.14 | 40.70 ± 26.17 | 55.0 ± 29.38 |
